This is an account of results in publication PMC12892976, “Alkylation-based optimization of antifungal FPPS inhibitors yields a potent, broad-spectrum lipophilic zoledronate derivative” (mBio, 2025).

One experiment relates to C. albicans. Nature of the experiment: membrane depolarization, diS-C3(3). As to conditions: diS-C3(3) emission maximum. The format is cell-based, Candida albicans. Here is the method:
Membrane depolarization was determined using potential-sensitive fluorophore diS-C3(3) (Sigma), as described previously ([51]). Yeast cells and A. fumigatus conidia were treated as described above, then washed with citrate phosphate buffer and labeled with 20 nM diS-C3(3) at a final concentration of 10^6 cells/mL for yeasts and 10^4 conidia/mL for Aspergillus. Cells were transferred to a microplate (Invitrogen), then emission spectra between 560 and 585 nm (λexcitation = 531 nm) were obtained every 12 min for 1 h using a CLARIOstar plate reader (BMG Labtech). The emission λmax was determined at each timepoint.

The test system of experiment [1] is 12 pathogenic bacterial species. Nature of the experiment: antibacterial MIC, summary of 12 pathogenic bacterial species. It counts as cell-based. An excerpt: […]; Table S3). […]. […] […].
Another experiment deals with C. neoformans. Put plainly: ergosterol quantitation. It counts as cell-based, Cryptococcus neoformans. The following applies: 1× MIC vs no-drug control. Here is the method: Treated cultures were incubated at 30°C with shaking for 18 h for C. albicans and A. fumigatus and for 32 h for C. neoformans. Cell membrane ergosterol was then extracted and quantified as described previously ([48]).

For another experiment, the system named is TNF-α. Further details: method as in PMID 23610597. As to conditions: cited from earlier work.

For `CCCCCCCCCCn1cc[n+](CC(O)(P(=O)(O)O)P(=O)(O)O)c1` [10-ZOL, Decyl-zoledronate], the membrane depolarization result in the experiment with C. albicans is reported as “dose-dependent depolarization effect”. The antibacterial activity result in experiment [1] was “limited or no antibacterial activity”. Moreover, in the experiment with C. neoformans, the membrane ergosterol content entry is “significant depletion of membrane ergosterol”. Moreover, the TNF-α release result in the experiment with TNF-α is on record as “stimulate the release of TNF-α”.
